# According to ChEMBL document CHEMBL3885881, “DrugMatrix”:
# Organism: Rattus norvegicus
# Test: DrugMatrix - Regimen: Daily Repeat
# Assay type: toxicity, organism-based, Sprague-Dawley
# Set-up: regimen Daily Repeat, gender Male, age 6-8 weeks
# Details: in vivo, po, route oral GAVAGE, […]; for ABSOLUTE BASOPHIL / ABSOLUTE EOSINOPHIL / ABSOLUTE LYMPHOCYTE / ABSOLUTE MONOCYTE / ABSOLUTE SEGMENTED NEUTROPHIL / BASOPHIL / EOSINOPHIL / ERYTHROCYTE COUNT / HEMATOCRIT / HEMOGLOBIN / LEUKOCYTE COUNT / LYMPHOCYTE / MEAN CORPUSCULAR HEMOGLOBIN / MEAN CORPUSCULAR HEMOGLOBIN CONCENTRATION / MEAN CORPUSCULAR VOLUME / MONOCYTE / NEUTROPHIL / NUCLEATED RED BLOOD CELLS / PLATELET COUNT: tissue Blood; for ALANINE AMINOTRANSFERASE / ALBUMIN / ALKALINE PHOSPHATASE / ASPARTATE AMINOTRANSFERASE / BLOOD UREA NITROGEN / CARBON DIOXIDE / CHLORIDE / CHOLESTEROL / CREATINE PHOSPHOKINASE / CREATININE / GLUCOSE / LACTATE DEHYDROGENASE / LIPASE / PHOSPHORUS / POTASSIUM / SODIUM / TOTAL BILIRUBIN / TOTAL PROTEIN / URIC ACID: tissue Plasma
# [1] = 10 mg/kg, 72 h, dose level Low, time 3 day
# [2] = 10 mg/kg, 120 h, dose level Low, time 5 day
# [3] = 1200 mg/kg, 72 h, dose level High, time 3 day
# [4] = 1200 mg/kg, 120 h, dose level High, time 5 day
structure (smiles),measurement,setting,value
COC(=O)Nc1nc2cc(C(=O)c3ccc(F)cc3)ccc2[nH]1 [FLUBENDAZOLE],ABSOLUTE BASOPHIL,[1],0 CELLS/uL
same,ABSOLUTE EOSINOPHIL,[1],47.67 CELLS/uL
same,ABSOLUTE LYMPHOCYTE,[1],13609.33 CELLS/uL
same,ABSOLUTE MONOCYTE,[1],47.67 CELLS/uL
same,ABSOLUTE SEGMENTED NEUTROPHIL,[1],1162 CELLS/uL
same,BASOPHIL,[1],0%
same,EOSINOPHIL,[1],0.33%
same,ERYTHROCYTE COUNT,[1],5.56 x10E6/uL
same,HEMATOCRIT,[1],35.83%
same,HEMOGLOBIN,[1],14.1 G/DL
same,LEUKOCYTE COUNT,[1],14.87 x10E3/uL
same,LYMPHOCYTE,[1],91.33%
same,MEAN CORPUSCULAR HEMOGLOBIN,[1],25.37 pg
same,MEAN CORPUSCULAR HEMOGLOBIN CONCENTRATION,[1],39.33 G/DL
same,MEAN CORPUSCULAR VOLUME,[1],64.4 fL
same,MONOCYTE,[1],0.33%
same,NEUTROPHIL,[1],8%
same,NUCLEATED RED BLOOD CELLS,[1],0 /100WBC
same,PLATELET COUNT,[1],1248.33 x10E3/uL
same,ALANINE AMINOTRANSFERASE,[1],66.33 u/L
same,ALBUMIN,[1],4.3 G/DL
same,ALKALINE PHOSPHATASE,[1],384.67 u/L
same,ASPARTATE AMINOTRANSFERASE,[1],89 u/L
same,BLOOD UREA NITROGEN,[1],14.67 mg/dL
same,CARBON DIOXIDE,[1],28.67 mmol/L
same,CHLORIDE,[1],103.67 MEQ/L
same,CHOLESTEROL,[1],73 mg/dL
same,CREATINE PHOSPHOKINASE,[1],180.67 u/L
same,CREATININE,[1],0.2 mg/dL
same,GLUCOSE,[1],149.33 mg/dL
same,LACTATE DEHYDROGENASE,[1],206 u/L
same,LIPASE,[1],10.67 u/L
same,PHOSPHORUS,[1],13.07 mg/dL
same,POTASSIUM,[1],6.75 MEQ/L
same,SODIUM,[1],148 MEQ/L
same,TOTAL BILIRUBIN,[1],0.17 mg/dL
same,TOTAL PROTEIN,[1],5.6 G/DL
same,URIC ACID,[1],2.37 mg/dL
same,ABSOLUTE BASOPHIL,[2],0 CELLS/uL
same,ABSOLUTE EOSINOPHIL,[2],0 CELLS/uL
same,ABSOLUTE LYMPHOCYTE,[2],11922.67 CELLS/uL
same,ABSOLUTE MONOCYTE,[2],87 CELLS/uL
same,ABSOLUTE SEGMENTED NEUTROPHIL,[2],723.67 CELLS/uL
same,BASOPHIL,[2],0%
same,EOSINOPHIL,[2],0%
same,ERYTHROCYTE COUNT,[2],5.65 x10E6/uL
same,HEMATOCRIT,[2],34.27%
same,HEMOGLOBIN,[2],13.7 G/DL
same,LEUKOCYTE COUNT,[2],12.73 x10E3/uL
same,LYMPHOCYTE,[2],93.67%
same,MEAN CORPUSCULAR HEMOGLOBIN,[2],24.3 pg
same,MEAN CORPUSCULAR HEMOGLOBIN CONCENTRATION,[2],40.03 G/DL
same,MEAN CORPUSCULAR VOLUME,[2],60.63 fL
same,MONOCYTE,[2],0.67%
same,NEUTROPHIL,[2],5.67%
same,NUCLEATED RED BLOOD CELLS,[2],0.33 /100WBC
same,PLATELET COUNT,[2],1117 x10E3/uL
same,ALANINE AMINOTRANSFERASE,[2],57.33 u/L
same,ALBUMIN,[2],4.23 G/DL
same,ALKALINE PHOSPHATASE,[2],373.33 u/L
same,ASPARTATE AMINOTRANSFERASE,[2],85.33 u/L
same,BLOOD UREA NITROGEN,[2],15.67 mg/dL
same,CARBON DIOXIDE,[2],23.33 mmol/L
same,CHLORIDE,[2],105 MEQ/L
same,CHOLESTEROL,[2],58.67 mg/dL
same,CREATINE PHOSPHOKINASE,[2],240.33 u/L
same,CREATININE,[2],0.22 mg/dL
same,GLUCOSE,[2],160.33 mg/dL
same,LACTATE DEHYDROGENASE,[2],156.67 u/L
same,LIPASE,[2],9.33 u/L
same,PHOSPHORUS,[2],12.1 mg/dL
same,POTASSIUM,[2],7.18 MEQ/L
same,SODIUM,[2],146.47 MEQ/L
same,TOTAL BILIRUBIN,[2],0.2 mg/dL
same,TOTAL PROTEIN,[2],5.97 G/DL
same,URIC ACID,[2],1.9 mg/dL
same,ABSOLUTE BASOPHIL,[3],0 CELLS/uL
same,ABSOLUTE EOSINOPHIL,[3],0 CELLS/uL
same,ABSOLUTE LYMPHOCYTE,[3],12475.33 CELLS/uL
same,ABSOLUTE MONOCYTE,[3],43.67 CELLS/uL
same,ABSOLUTE SEGMENTED NEUTROPHIL,[3],1014.33 CELLS/uL
same,BASOPHIL,[3],0%
same,EOSINOPHIL,[3],0%
same,ERYTHROCYTE COUNT,[3],5.28 x10E6/uL
same,HEMATOCRIT,[3],33.83%
same,HEMOGLOBIN,[3],13.6 G/DL
same,LEUKOCYTE COUNT,[3],13.53 x10E3/uL
same,LYMPHOCYTE,[3],92%
same,MEAN CORPUSCULAR HEMOGLOBIN,[3],25.87 pg
same,MEAN CORPUSCULAR HEMOGLOBIN CONCENTRATION,[3],40.23 G/DL
same,MEAN CORPUSCULAR VOLUME,[3],64.27 fL
same,MONOCYTE,[3],0.33%
same,NEUTROPHIL,[3],7.67%
same,NUCLEATED RED BLOOD CELLS,[3],0.33 /100WBC
same,PLATELET COUNT,[3],1168 x10E3/uL
same,ALANINE AMINOTRANSFERASE,[3],71.67 u/L
same,ALBUMIN,[3],4.33 G/DL
same,ALKALINE PHOSPHATASE,[3],451.33 u/L
same,ASPARTATE AMINOTRANSFERASE,[3],104.67 u/L
same,BLOOD UREA NITROGEN,[3],12 mg/dL
same,CARBON DIOXIDE,[3],29.33 mmol/L
same,CHLORIDE,[3],100.67 MEQ/L
same,CHOLESTEROL,[3],60.33 mg/dL
same,CREATINE PHOSPHOKINASE,[3],400 u/L
same,CREATININE,[3],0.19 mg/dL
same,GLUCOSE,[3],163.67 mg/dL
same,LACTATE DEHYDROGENASE,[3],208.67 u/L
same,LIPASE,[3],9.67 u/L
same,PHOSPHORUS,[3],12.3 mg/dL
same,POTASSIUM,[3],6.63 MEQ/L
same,SODIUM,[3],146.5 MEQ/L
same,TOTAL BILIRUBIN,[3],0.17 mg/dL
same,TOTAL PROTEIN,[3],5.7 G/DL
same,URIC ACID,[3],1.9 mg/dL
same,ABSOLUTE BASOPHIL,[4],0 CELLS/uL
same,ABSOLUTE EOSINOPHIL,[4],0 CELLS/uL
same,ABSOLUTE LYMPHOCYTE,[4],14800.33 CELLS/uL
same,ABSOLUTE MONOCYTE,[4],0 CELLS/uL
same,ABSOLUTE SEGMENTED NEUTROPHIL,[4],966.33 CELLS/uL
same,BASOPHIL,[4],0%
same,EOSINOPHIL,[4],0%
same,ERYTHROCYTE COUNT,[4],5.99 x10E6/uL
same,HEMATOCRIT,[4],36.1%
same,HEMOGLOBIN,[4],14.47 G/DL
same,LEUKOCYTE COUNT,[4],15.77 x10E3/uL
same,LYMPHOCYTE,[4],93.67%
same,MEAN CORPUSCULAR HEMOGLOBIN,[4],24.2 pg
same,MEAN CORPUSCULAR HEMOGLOBIN CONCENTRATION,[4],40.07 G/DL
same,MEAN CORPUSCULAR VOLUME,[4],60.33 fL
same,MONOCYTE,[4],0%
same,NEUTROPHIL,[4],6.33%
same,NUCLEATED RED BLOOD CELLS,[4],0 /100WBC
same,PLATELET COUNT,[4],1290.67 x10E3/uL
same,ALANINE AMINOTRANSFERASE,[4],58.33 u/L
same,ALBUMIN,[4],4.4 G/DL
same,ALKALINE PHOSPHATASE,[4],432 u/L
same,ASPARTATE AMINOTRANSFERASE,[4],93.33 u/L
same,BLOOD UREA NITROGEN,[4],12.33 mg/dL
same,CARBON DIOXIDE,[4],21.67 mmol/L
same,CHLORIDE,[4],103.33 MEQ/L
same,CHOLESTEROL,[4],77.67 mg/dL
same,CREATINE PHOSPHOKINASE,[4],239.67 u/L
same,CREATININE,[4],0.28 mg/dL
same,GLUCOSE,[4],161 mg/dL
same,LACTATE DEHYDROGENASE,[4],157.67 u/L
same,LIPASE,[4],10 u/L
same,PHOSPHORUS,[4],11.27 mg/dL
same,POTASSIUM,[4],6.7 MEQ/L
same,SODIUM,[4],144.17 MEQ/L
same,TOTAL BILIRUBIN,[4],0.13 mg/dL
same,TOTAL PROTEIN,[4],6.23 G/DL
same,URIC ACID,[4],1.93 mg/dL
